Results published in paper PMC10434152, “Effectors of the Type VI Secretion System Have the Potential to Be Modified into Antimicrobial Peptides” (Microbiology Spectrum, 2023).
Where two headings read alike, the source gives them in different places. Residues, ends and D or L forms follow the SMILES beside them.

Experiments:
[1] = tested on: E. coli ATCC 25922; experiment: MIC and MBC against laboratory strain E. coli ATCC 25922; format: cell-based, Escherichia coli; details: for MBC: 10 μL from MIC put into Mueller-Hinton agar medium, 24 h; for MIC: 37°C, 18 to 20 h
Experimental: (§1) MIC was measured according to Luna et al. ([25]) as described previously. Briefly, 100 μL of RPMI 1640 medium containing drugs at various concentrations was cultured with 100 μL of bacteria at 1 × 10^6 CFU/mL in 96-well plates at 37°C for 18 to 20 h. Wells containing 100 μL of bacteria at 1 × 10^6 CFU/mL and 100 μL medium were used as positive controls. Wells containing 100 μL drug and 100 μL medium were used as drug-negative controls, and wells containing 200 μL medium were used as negative controls.
(§2) The MBC, in which a combination of 10 μL from MIC was put into Mueller-Hinton agar medium and incubated for 24 h, was the first one in which […].

[2] = tested on: S. aureus ATCC 25923; experiment: MIC and MBC against laboratory strain S. aureus ATCC 25923; format: cell-based, Staphylococcus aureus; details: for MBC: 10 μL from MIC put into Mueller-Hinton agar medium, 24 h; for MIC: 37°C, 18 to 20 h
Experimental: as §1, §2

[3] = tested on: S. aureus USA200; experiment: Checkerboard combination with ciprofloxacin; format: cell-based; details: in combination with ciprofloxacin
[4] = tested on: ExPEC PCN033; experiment: MIC and MBC against MDR bacteria; format: cell-based, Escherichia coli; details: for MBC: Mueller-Hinton agar, 24 h; for MIC: RPMI 1640, 37°C, 18 to 20 h
Experimental: as §1, §2

[5] = tested on: ExPEC RS218; experiment: MIC and MBC against MDR bacteria; format: cell-based, Escherichia coli; details: for MBC: Mueller-Hinton agar, 24 h; for MIC: RPMI 1640, 37°C, 18 to 20 h
Experimental: as §1, §2

[6] = tested on: Bacillus subtilis NCD-2; experiment: MIC and MBC against MDR bacteria; format: cell-based; details: for MBC: Mueller-Hinton agar, 24 h; for MIC: RPMI 1640, 37°C, 18 to 20 h
Experimental: as §1, §2

[7] = tested on: S. aureus USA300; experiment: MIC and MBC against MDR bacteria; format: cell-based; details: for MBC: Mueller-Hinton agar, 24 h; for MIC: RPMI 1640, 37°C, 18 to 20 h
Experimental: as §1, §2

[8] = tested on: S. aureus 1802043; experiment: MIC and MBC against MDR bacteria; format: cell-based; details: for MBC: Mueller-Hinton agar, 24 h; for MIC: RPMI 1640, 37°C, 18 to 20 h
Experimental: as §1, §2

[9] = tested on: Streptococcus SC19; experiment: MIC and MBC against MDR bacteria; format: cell-based; details: for MBC: Mueller-Hinton agar, 24 h; for MIC: RPMI 1640, 37°C, 18 to 20 h
Experimental: as §1, §2

[10] = tested on: S. aureus ATCC 43300; experiment: MIC and MBC against MDR bacteria; format: cell-based; details: for MBC: Mueller-Hinton agar, 24 h; for MIC: RPMI 1640, 37°C, 18 to 20 h
Experimental: as §1, §2

[11] = tested on: S. aureus USA200; experiment: MIC and MBC against MDR bacteria; format: cell-based; details: for MBC: Mueller-Hinton agar, 24 h
Experimental: as §1, §2

[12] = tested on: S. aureus USA200; experiment: Mouse tissue load experiment; format: in vivo; details: BALB/c mice, five per group, 20 mg/kg i.p., tissues (liver, spleen, lung, kidney) harvested 12 h later, CFU
Experimental: For the mouse tissue load experiment, the bacteria were manipulated as described previously. Twenty female BALB/c mice (18 ± 2 g each) were divided randomly into four groups of five mice each. The animals in the four groups were injected intraperitoneally with 20 mg/kg Tsap-1 AMP, 20 mg/kg ciprofloxacin, 10 mg/kg Tsap-1, and 10 mg/kg ciprofloxacin or an equal amount of PBS. Twelve hours later, the mice were anesthetized with ether and perfused with PBS, and their livers, spleens, lungs, and kidneys were harvested. The tissues were then homogenized using a tissue grinder. Then, 10× serial dilutions of the homogenates were prepared and plated onto LB plates, and the CFUs were counted.

[13] = tested on: S. aureus USA200; experiment: S. aureus-infected mouse model, survival; format: in vivo; details: BALB/c mice, n = 10, 1 × 10^7 bacteria i.p.; 20 mg/kg i.p. 6 h after infection; survival after 7 days
Experimental: To determine the drug protection rate fraction, S. aureus USA200 that had been cultured overnight was cultured in LB broth to an OD600 of 0.5, washed three times, and resuspended in PBS. Forty female BALB/c mice (18 ± 2 g each) were divided randomly into four groups. All four groups (n = 10) of mice were injected intraperitoneally with 1 × 10^7 bacteria. Six hours after infection, the animals in the four groups received 20 mg/kg Tsap-1, 20 mg/kg ciprofloxacin, 10 mg/kg Tsap-1, and 10 mg/kg ciprofloxacin or an equal amount of PBS by intraperitoneal injection. The survival rate of the mice was recorded after 7 days.

[14] = tested on: Sheep red blood cells; experiment: Hemolytic activity; format: cell-based; details: 4 μg/mL; 10% SRBCs, 37°C, 6 h, absorbance 540 nm, triplicate
Experimental: Sheep red blood cells (SRBCs) were used to detect hemolytic activity according to a previous method. Briefly, fresh SRBCs were washed with PBS, and a suspension of 10% SRBCs was mixed with solutions of Tsap or melittin at various concentrations. After incubation at 37°C for 6 h, the cells were removed by centrifugation at 800 × g for 10 min, and the absorbance of the supernatant at 540 nm was measured. Culture supernatant from cells that had been stimulated with 1% Triton X-100 was used as a positive control, and culture supernatant from cells that had been incubated with PBS was used as a negative control. Each measurement was taken in triplicate.

[15] = RPMI 1640 medium, 1 × 10^6 CFU/mL, 96-well plates
[16] = RPMI supplemented with Glycine (0.5 mM)
[17] = RPMI supplemented with L-Arginine (0.5 mM)
[18] = RPMI supplemented with L-Histidine (0.5 mM)
[19] = RPMI supplemented with L-Tryptophan (0.125 mM)
[20] = RPMI supplemented with Leucine (1 mM)
[21] = RPMI supplemented with nonessential amino acid solution
[22] = S. aureus USA200, RPMI 1640, 37°C, 18 to 20 h

Compound | MBC [1] | MIC [1, 15] | MIC [1, 16] | MIC [1, 17] | MIC [1, 18] | MIC [1, 19] | MIC [1, 20] | MIC [1, 21] | MBC [2] | MIC [2, 15] | MIC [2, 16] | MIC [2, 17] | MIC [2, 18] | MIC [2, 19] | MIC [2, 20] | MIC [2, 21] | fractional inhibitory concentration index (FICI) [3] | MBC [4] | MIC [4] | MBC [5] | further results
CC[C@H](C)[C@H](NC(=O)[C@H](CCSC)NC(=O)[C@H](CCCCN)NC(=O)[C@H](CCCCN)NC(=O)[C@H](CC(C)C)NC(=O)[C@H](CCCCN)NC(=O)[C@H](CCCCN)NC(=O)[C@@H](N)Cc1c[nH]c2ccccc12)C(=O)N[C@@H](CCCCN)C(=O)N[C@@H](CCCCN)C(=O)O [Tsap1] (H-WKKLKKMIKK-OH) | 4 µg/mL | 32 µg/mL | 16 µg/mL | 16 µg/mL | 32 µg/mL | 32 µg/mL | 32 µg/mL | 16 µg/mL | 4 µg/mL | 16 µg/mL | 16 µg/mL | 16 µg/mL | 16 µg/mL | 16 µg/mL | 16 µg/mL | 16 µg/mL | 0.5 | 32 µg/mL | 64 µg/mL | 32 µg/mL | MIC [5]: 64 µg/mL; MBC [6]: 4 µg/mL; MIC [6]: 16 µg/mL; MBC [7]: 2 µg/mL; MIC [7]: 16 µg/mL; MBC [8]: 2 µg/mL; MIC [8]: 16 µg/mL; MBC [9]: 4 µg/mL; MIC [9]: 16 µg/mL; MBC [10]: 4 µg/mL; MIC [10]: 16 µg/mL; MBC ([11]; S. aureus USA200): 8 µg/mL; MIC [11, 22]: 64 µg/mL
CC[C@H](C)[C@H](NC(=O)[C@H](CCSC)NC(=O)[C@H](CCCCN)NC(=O)[C@H](CCCCN)NC(=O)[C@H](CC(C)C)NC(=O)[C@H](C)NC(=O)[C@H](CCCCN)NC(=O)[C@@H](N)Cc1c[nH]c2ccccc12)C(=O)N[C@@H](CCSC)C(=O)N[C@@H](CCCCN)C(=O)N[C@H](C(=O)O)[C@@H](C)O [Tsap2] (H-WKALKKMIMKT-OH) | 32 µg/mL | 128 µg/mL | 64 µg/mL | 64 µg/mL | 128 µg/mL | 128 µg/mL | 128 µg/mL | 64 µg/mL | 16 µg/mL | 64 µg/mL | 64 µg/mL | 16 µg/mL | 64 µg/mL | 64 µg/mL | 64 µg/mL | 64 µg/mL | 1.125 | 64 µg/mL | 256 µg/mL | 64 µg/mL | MIC [5]: 256 µg/mL; MBC [6]: 8 µg/mL; MIC [6]: 16 µg/mL; MBC [7]: 8 µg/mL; MIC [7]: 16 µg/mL; MBC [8]: 8 µg/mL; MIC [8]: 16 µg/mL; MBC [9]: 8 µg/mL; MIC [9]: 16 µg/mL; MBC [10]: 8 µg/mL; MIC [10]: 16 µg/mL; MBC ([11]; S. aureus USA200): 64 µg/mL; MIC [11, 22]: 512 µg/mL
CC[C@H](C)[C@H](NC(=O)[C@H](CCCCN)NC(=O)[C@H](CCSC)NC(=O)[C@@H](NC(=O)[C@H](CCSC)NC(=O)[C@H](CCCCN)NC(=O)[C@H](CCCCN)NC(=O)[C@H](CC(C)C)NC(=O)[C@H](C)NC(=O)[C@H](CCCCN)NC(=O)[C@@H](N)Cc1c[nH]c2ccccc12)[C@@H](C)CC)C(=O)O [Tsap3] (H-WKALKKMIMKI-OH) | 4 µg/mL | 32 µg/mL | 16 µg/mL | 16 µg/mL | 32 µg/mL | 32 µg/mL | 32 µg/mL | 16 µg/mL | 8 µg/mL | 16 µg/mL | 16 µg/mL | 16 µg/mL | 16 µg/mL | 16 µg/mL | 16 µg/mL | 16 µg/mL | 1.25 | 32 µg/mL | 64 µg/mL | 32 µg/mL | MIC [5]: 64 µg/mL; MBC [6]: 4 µg/mL; MIC [6]: 16 µg/mL; MBC [7]: 2 µg/mL; MIC [7]: 16 µg/mL; MBC [8]: 2 µg/mL; MIC [8]: 16 µg/mL; MBC [9]: 4 µg/mL; MIC [9]: 16 µg/mL; MBC [10]: 4 µg/mL; MIC [10]: 16 µg/mL; MBC ([11]; S. aureus USA200): 16 µg/mL; MIC [11, 22]: 64 µg/mL
O=C(O)c1cn(C2CC2)c2cc(N3CCNCC3)c(F)cc2c1=O [ciprofloxacin] |  |  |  |  |  |  |  |  |  |  |  |  |  |  |  |  |  |  |  |  | reduction of bacterial loads in all tissues compared with untreated group [12]: about 32 times; protection [13]: 60%; MIC ([11]; Staphylococcus aureus, S. aureus USA200, stated in text, read-out: MIC): 16 µg/mL
melittin |  |  |  |  |  |  |  |  |  |  |  |  |  |  |  |  |  |  |  |  | hemolysis activity [14]: complete hemolysis activity
